According to PubChem BioAssay (NCI):
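96-well plates; 48 h exposure; 5 concentrations. Endpoints by linear interpolation between flanking doses. Not reached: highest tested concentration assigned. At the GI50, growth is halved. TGI: concentration producing complete growth inhibition.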

How the values were obtained:
Assay in all cases: growth of human tumour cells (NCI), 48 h
786-0 renal = test system: 786-0 renal
A498 renal = test system: A498 renal
A549 NSCLC = test system: A549 NSCLC
ACHN renal = test system: ACHN renal
BT-549 breast = test system: BT-549 breast
CAKI-1 renal = test system: CAKI-1 renal
CCRF-CEM leukemia = test system: CCRF-CEM leukemia
COLO 205 colon = test system: COLO 205 colon
DU-145 prostate = test system: DU-145 prostate
EKVX NSCLC = test system: EKVX NSCLC
HCC-2998 colon = test system: HCC-2998 colon
HCT-116 colon = test system: HCT-116 colon
HCT-15 colon = test system: HCT-15 colon
HL-60(TB) leukemia = test system: HL-60(TB) leukemia
HOP-62 NSCLC = test system: HOP-62 NSCLC
HOP-92 NSCLC = test system: HOP-92 NSCLC
HS 578T breast = test system: HS 578T breast
HT29 colon = test system: HT29 colon
IGROV1 ovarian = test system: IGROV1 ovarian
K-562 leukemia = test system: K-562 leukemia
KM12 colon = test system: KM12 colon
LOX IMVI melanoma = test system: LOX IMVI melanoma
M14 melanoma = test system: M14 melanoma
MALME-3M melanoma = test system: MALME-3M melanoma
MCF7 breast = test system: MCF7 breast
MDA-MB-231 breast = test system: MDA-MB-231 breast
MDA-MB-435 = test system: MDA-MB-435
MDA-MB-468 breast = test system: MDA-MB-468 breast
MOLT-4 leukemia = test system: MOLT-4 leukemia
NCI-H226 lung = test system: NCI-H226 lung
NCI-H23 lung = test system: NCI-H23 lung
NCI-H460 lung = test system: NCI-H460 lung
NCI-H522 lung = test system: NCI-H522 lung
NCI/ADR-RES ovarian = test system: NCI/ADR-RES ovarian
OVCAR-3 ovarian = test system: OVCAR-3 ovarian
OVCAR-4 ovarian = test system: OVCAR-4 ovarian
OVCAR-5 ovarian = test system: OVCAR-5 ovarian
OVCAR-8 ovarian = test system: OVCAR-8 ovarian
PC-3 prostate = test system: PC-3 prostate
RPMI-8226 leukemia = test system: RPMI-8226 leukemia
RXF 393 renal = test system: RXF 393 renal
SF-268 CNS = test system: SF-268 CNS
SF-295 CNS = test system: SF-295 CNS
SF-539 CNS = test system: SF-539 CNS
SK-MEL-2 melanoma = test system: SK-MEL-2 melanoma
SK-MEL-28 melanoma = test system: SK-MEL-28 melanoma
SK-MEL-5 melanoma = test system: SK-MEL-5 melanoma
SK-OV-3 ovarian = test system: SK-OV-3 ovarian
SN12C renal = test system: SN12C renal
SNB-19 CNS = test system: SNB-19 CNS
SNB-75 CNS = test system: SNB-75 CNS
SR leukemia = test system: SR leukemia
SW-620 colon = test system: SW-620 colon
T-47D breast = test system: T-47D breast
TK-10 renal = test system: TK-10 renal
U251 CNS = test system: U251 CNS
UACC-257 melanoma = test system: UACC-257 melanoma
UACC-62 melanoma = test system: UACC-62 melanoma
UO-31 renal = test system: UO-31 renal

Q: How did the GI50 (786-0 renal) turn out when Cn1cc(-c2cc(N)n3nc(-c4c[nH]c5ccccc45)cc3n2)c2cc(Cl)ccc21 was run?
A: 1.6 µM

Q: What about the TGI (786-0 renal) of the same compound?
A: 3.2 µM

Q: What about the GI50 (A498 renal) of the same compound?
A: 10.1 µM

Q: What about the TGI (A498 renal) of the same compound?
A: 22 µM

Q: What about the GI50 (A549 NSCLC) of the same compound?
A: 3.15 µM

Q: And the TGI (A549 NSCLC)?
A: 13 µM

Q: And the GI50 (ACHN renal)?
A: 2.98 µM

Q: What about the TGI (ACHN renal) of the same compound?
A: 10.6 µM

Q: What about the GI50 (BT-549 breast) of the same compound?
A: 16.9 µM

Q: And the TGI (BT-549 breast)?
A: 31.9 µM

Q: And the GI50 (CAKI-1 renal)?
A: 2.96 µM

Q: What about the TGI (CAKI-1 renal) of the same compound?
A: 12.4 µM

Q: What about the GI50 (CCRF-CEM leukemia) of the same compound?
A: 3.22 µM

Q: And the TGI (CCRF-CEM leukemia)?
A: > 100 µM

Q: And the GI50 (COLO 205 colon)?
A: 2.17 µM

Q: And the TGI (COLO 205 colon)?
A: 4.26 µM

Q: And the GI50 (DU-145 prostate)?
A: 5.69 µM

Q: And the TGI (DU-145 prostate)?
A: 22.5 µM

Q: And the GI50 (EKVX NSCLC)?
A: 2.8 µM

Q: And the TGI (EKVX NSCLC)?
A: 12.5 µM

Q: And the GI50 (HCC-2998 colon)?
A: 1.8 µM

Q: And the TGI (HCC-2998 colon)?
A: 3.41 µM

Q: And the GI50 (HCT-116 colon)?
A: 1.84 µM

Q: What about the TGI (HCT-116 colon) of the same compound?
A: 3.5 µM

Q: What about the GI50 (HCT-15 colon) of the same compound?
A: 1.72 µM

Q: What about the TGI (HCT-15 colon) of the same compound?
A: 3.29 µM

Q: And the GI50 (HL-60(TB) leukemia)?
A: 2.91 µM

Q: And the TGI (HL-60(TB) leukemia)?
A: 13.7 µM

Q: What about the GI50 (HOP-62 NSCLC) of the same compound?
A: 2.84 µM

Q: And the TGI (HOP-62 NSCLC)?
A: 10.8 µM

Q: What about the GI50 (HOP-92 NSCLC) of the same compound?
A: 2.73 µM

Q: And the TGI (HOP-92 NSCLC)?
A: 9.96 µM

Q: And the GI50 (HS 578T breast)?
A: 4.06 µM

Q: What about the TGI (HS 578T breast) of the same compound?
A: 24.3 µM

Q: And the GI50 (HT29 colon)?
A: 1.76 µM

Q: And the TGI (HT29 colon)?
A: 3.43 µM

Q: What about the GI50 (IGROV1 ovarian) of the same compound?
A: 3.61 µM

Q: What about the TGI (IGROV1 ovarian) of the same compound?
A: 14.6 µM

Q: And the GI50 (K-562 leukemia)?
A: 2.27 µM

Q: What about the TGI (K-562 leukemia) of the same compound?
A: 5.68 µM

Q: And the GI50 (KM12 colon)?
A: 2.55 µM

Q: What about the TGI (KM12 colon) of the same compound?
A: 6.63 µM

Q: And the GI50 (LOX IMVI melanoma)?
A: 1.71 µM

Q: And the TGI (LOX IMVI melanoma)?
A: 3.08 µM

Q: What about the GI50 (M14 melanoma) of the same compound?
A: 2.15 µM

Q: And the TGI (M14 melanoma)?
A: 4.93 µM

Q: What about the GI50 (MALME-3M melanoma) of the same compound?
A: 3.93 µM

Q: What about the TGI (MALME-3M melanoma) of the same compound?
A: 14.3 µM

Q: And the GI50 (MCF7 breast)?
A: 1.65 µM

Q: And the TGI (MCF7 breast)?
A: 3.58 µM

Q: And the GI50 (MDA-MB-231 breast)?
A: 1.9 µM

Q: What about the TGI (MDA-MB-231 breast) of the same compound?
A: 3.61 µM

Q: What about the GI50 (MDA-MB-435) of the same compound?
A: 3.69 µM

Q: What about the TGI (MDA-MB-435) of the same compound?
A: 13.4 µM

Q: And the GI50 (MDA-MB-468 breast)?
A: 1.89 µM

Q: What about the TGI (MDA-MB-468 breast) of the same compound?
A: 4.59 µM

Q: What about the GI50 (MOLT-4 leukemia) of the same compound?
A: 1.87 µM

Q: What about the TGI (MOLT-4 leukemia) of the same compound?
A: 5.24 µM

Q: And the GI50 (NCI-H226 lung)?
A: 14.1 µM

Q: And the TGI (NCI-H226 lung)?
A: 47.1 µM

Q: What about the GI50 (NCI-H23 lung) of the same compound?
A: 2.45 µM

Q: What about the TGI (NCI-H23 lung) of the same compound?
A: 7.38 µM

Q: What about the GI50 (NCI-H460 lung) of the same compound?
A: 2.35 µM

Q: And the TGI (NCI-H460 lung)?
A: 5.45 µM

Q: And the GI50 (NCI-H522 lung)?
A: 1.64 µM

Q: What about the TGI (NCI-H522 lung) of the same compound?
A: 3.43 µM

Q: What about the GI50 (NCI/ADR-RES ovarian) of the same compound?
A: 2.85 µM

Q: And the TGI (NCI/ADR-RES ovarian)?
A: 9.09 µM

Q: And the GI50 (OVCAR-3 ovarian)?
A: 4.75 µM

Q: And the TGI (OVCAR-3 ovarian)?
A: 29.6 µM

Q: And the GI50 (OVCAR-4 ovarian)?
A: 7.3 µM

Q: What about the TGI (OVCAR-4 ovarian) of the same compound?
A: 29.7 µM

Q: What about the GI50 (OVCAR-5 ovarian) of the same compound?
A: 2.09 µM

Q: And the TGI (OVCAR-5 ovarian)?
A: 4.81 µM

Q: What about the GI50 (OVCAR-8 ovarian) of the same compound?
A: 3.53 µM

Q: What about the TGI (OVCAR-8 ovarian) of the same compound?
A: 14.2 µM

Q: And the GI50 (PC-3 prostate)?
A: 3.15 µM

Q: What about the TGI (PC-3 prostate) of the same compound?
A: 11.4 µM

Q: What about the GI50 (RPMI-8226 leukemia) of the same compound?
A: 3.42 µM

Q: What about the TGI (RPMI-8226 leukemia) of the same compound?
A: 29 µM

Q: What about the GI50 (RXF 393 renal) of the same compound?
A: 2.47 µM

Q: What about the TGI (RXF 393 renal) of the same compound?
A: 8.46 µM

Q: And the GI50 (SF-268 CNS)?
A: 5.21 µM

Q: What about the TGI (SF-268 CNS) of the same compound?
A: 26.6 µM

Q: And the GI50 (SF-295 CNS)?
A: 1.87 µM

Q: And the TGI (SF-295 CNS)?
A: 3.79 µM

Q: What about the GI50 (SF-539 CNS) of the same compound?
A: 1.81 µM

Q: What about the TGI (SF-539 CNS) of the same compound?
A: 3.66 µM

Q: What about the GI50 (SK-MEL-2 melanoma) of the same compound?
A: 6.75 µM

Q: What about the TGI (SK-MEL-2 melanoma) of the same compound?
A: 24 µM

Q: And the GI50 (SK-MEL-28 melanoma)?
A: 7.16 µM

Q: What about the TGI (SK-MEL-28 melanoma) of the same compound?
A: 19.9 µM

Q: And the GI50 (SK-MEL-5 melanoma)?
A: 7.16 µM

Q: What about the TGI (SK-MEL-5 melanoma) of the same compound?
A: 19.7 µM

Q: What about the GI50 (SK-OV-3 ovarian) of the same compound?
A: 15.9 µM

Q: What about the TGI (SK-OV-3 ovarian) of the same compound?
A: 43 µM

Q: And the GI50 (SN12C renal)?
A: 5.3 µM

Q: What about the TGI (SN12C renal) of the same compound?
A: 18.8 µM

Q: What about the GI50 (SNB-19 CNS) of the same compound?
A: 4.32 µM

Q: What about the TGI (SNB-19 CNS) of the same compound?
A: 16.3 µM

Q: What about the GI50 (SNB-75 CNS) of the same compound?
A: 4 µM

Q: What about the TGI (SNB-75 CNS) of the same compound?
A: 18.3 µM

Q: What about the GI50 (SR leukemia) of the same compound?
A: 0.857 µM

Q: And the TGI (SR leukemia)?
A: > 100 µM

Q: And the GI50 (SW-620 colon)?
A: 2 µM

Q: And the TGI (SW-620 colon)?
A: 3.92 µM

Q: What about the GI50 (T-47D breast) of the same compound?
A: 4.44 µM

Q: What about the TGI (T-47D breast) of the same compound?
A: 20 µM

Q: And the GI50 (TK-10 renal)?
A: 4.34 µM

Q: What about the TGI (TK-10 renal) of the same compound?
A: 15.7 µM

Q: And the GI50 (U251 CNS)?
A: 2.01 µM

Q: What about the TGI (U251 CNS) of the same compound?
A: 4.44 µM

Q: And the GI50 (UACC-257 melanoma)?
A: 10.6 µM

Q: And the TGI (UACC-257 melanoma)?
A: 23.5 µM

Q: What about the GI50 (UACC-62 melanoma) of the same compound?
A: 5.36 µM

Q: And the TGI (UACC-62 melanoma)?
A: 18.7 µM

Q: What about the GI50 (UO-31 renal) of the same compound?
A: 4.22 µM

Q: And the TGI (UO-31 renal)?
A: 16.9 µM
